Values joined by “and” are separate entries in the source; they are usually repeats but may differ in a detail not shown here. Equal entries are not always repeated. “Also recorded” adds a separate entry of the source. Where two headings read alike, the source gives them in different places.
Assays:
TPO [1] = tested on: TPO; design: method as in PMID 25822105; details: according to literature data ref 22; read-out: IC50 of TPO inhibition (positive controls); cited from earlier work
[2] = ABTS radical scavenging (in vitro antioxidant capacity) assay; details: n = 9
Description: The ABTS radical scavenging activity was determined according to Re et al. with some modifications. 250 µL of ABTS solution was mixed with 10 µL of each pure polyphenols solutions (concentration 50 µg/mL) and measured at the wavelength 724 nm using a UV/Vis spectrophotometer (BioTek, Model Epoch2TC, Winooski, Vermont, VT, USA) after 15 min of incubation in room temperature. The inhibition percentage of ABTS discoloration was calculated using the following equation: AA=Ac−Ap/Ac×100% Where Ac—the absorbance of control, Ap—the absorbance of pure polyphenols solutions.

thyroid peroxidase (TPO) [3] = target: T1, thyroid peroxidase (TPO) (Sus scrofa, UniProt P09933); experiment: Effect of pure substance combinations on TPO activity (isobolographic analysis); type: biochemical, porcine; design: key to CI (Combination Index): CI <1 = synergy, =1 = addition, >1 = antagonism; details: TPO inhibition; for CI (Combination Index): n = 9
T1 construct: The frozen thyroid gland was cut into slices and homogenized in a buffer containing 0.25 M sucrose; from tissue; host or cells: porcine thyroid gland (homogenate, centrifuged, salted-out to 60%)
T1 sequence (P09933 15-926): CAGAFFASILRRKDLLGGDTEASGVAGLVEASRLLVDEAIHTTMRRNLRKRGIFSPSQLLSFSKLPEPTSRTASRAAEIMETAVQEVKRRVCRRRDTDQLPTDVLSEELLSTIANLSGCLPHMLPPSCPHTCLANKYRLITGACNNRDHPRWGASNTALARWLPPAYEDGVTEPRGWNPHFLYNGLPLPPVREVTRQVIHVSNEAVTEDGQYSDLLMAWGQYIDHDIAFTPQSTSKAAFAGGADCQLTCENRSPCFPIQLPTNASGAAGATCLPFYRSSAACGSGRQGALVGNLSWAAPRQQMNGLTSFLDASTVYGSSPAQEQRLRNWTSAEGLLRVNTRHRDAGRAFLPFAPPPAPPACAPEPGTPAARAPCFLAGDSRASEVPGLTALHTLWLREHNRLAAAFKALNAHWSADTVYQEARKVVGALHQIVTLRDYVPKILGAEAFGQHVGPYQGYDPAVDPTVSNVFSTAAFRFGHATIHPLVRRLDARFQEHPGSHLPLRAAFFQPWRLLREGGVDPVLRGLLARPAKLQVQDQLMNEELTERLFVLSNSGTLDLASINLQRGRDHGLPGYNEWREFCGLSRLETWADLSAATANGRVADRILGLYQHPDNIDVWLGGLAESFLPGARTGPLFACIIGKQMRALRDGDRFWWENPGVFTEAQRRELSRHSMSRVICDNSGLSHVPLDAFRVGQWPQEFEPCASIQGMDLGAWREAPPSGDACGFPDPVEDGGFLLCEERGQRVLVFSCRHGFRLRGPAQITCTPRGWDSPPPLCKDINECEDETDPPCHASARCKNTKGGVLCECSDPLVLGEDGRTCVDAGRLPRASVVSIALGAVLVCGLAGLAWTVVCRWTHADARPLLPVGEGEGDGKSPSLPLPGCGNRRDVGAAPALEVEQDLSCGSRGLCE
Description: (§1) The assay was used according to Jomaa with some modification. The measurement was made using a plate spectrophotometer (BioTek, Model Epoch2TC, Winooski, Vermont, VT, USA) in 96–well plates at a wavelength of 470 nm. The assay was conducted as follows: 50 µl of buffer, 40 µl of pure substance solution, 50 µL of guaiacol, 20 µL of TPO enzyme and 50 µL H2O2. The total volume of the mixture was 210 µL. In the sample probe, extracts were replaced by the buffer. Absorbance readings were recorded every minute for a total of 3 min in 37^o. As a unit of TPO activity is defined as the change of absorbation per minute.
Results (type and strength of interactions) can be shown on the isobolograms and described by the combination Index (CI). When CI is lower than one, indicates synergy; when CI is equal to one, indicates addition; when CI is higher than one, indicates antagonism. Isobolograms were performed according to Chou. […] Pure substances were mixed in various volume ratios: 1:4, 4:1, 3:2, 2:3, 1:1. All of the mixtures were made in combinations of two substances. The inhibitory assay was made using the same proportions as with single solutions.

thyroid peroxidase (TPO) [4] = target: T1, thyroid peroxidase (TPO); experiment: TPO inhibitory assay (guaiacol oxidation); type: biochemical, porcine; details: for Mode of Inhibition: Lineweaver-Burk plot, with respect to guaiacol; for Vmax: TPO in presence of inhibitor; for Vmax / Ki / IC50: n = 9; for IC50: porcine thyroid TPO, guaiacol assay, read-out: IC50 of TPO inhibition
Description: Porcine thyroid glands were obtained at a local slaughterhouse (Lublin, Poland) and stored in −20 °C until used.
The assay was prepared according to Jomaa with some modifications. The frozen thyroid gland was cut into slices and homogenized in a buffer containing 0.25 M sucrose, 2 mM Tris—HCl, 100 mM KCl, 40 mM NaCl, 10 mM MgCl2 (pH 7.4) with a Philips homogenizer. The thyroid gland was than centrifuged two times at 4000 RPM per 15 min in temperature +4 °C. The enzyme protein was then salted-out to 60%. The supernatant was used for further analysis and was stored in a −20 °C freezer.
The activity of the enzyme was assayed using a guaiacol assay. […] The reaction components were incubated in 37 °C before the assignment. […] The assay was conducted as follows: To a cuvette, 180 µL of buffer, 100 µL of guaiacol and 40 µL of TPO were mixed to the final volume of […]. The cuvette was then placed into the spectrophotometer and the reaction was started by the addition of 100 µL H2O2. Absorbance readings were recorded every minute for a total of 3 min. Verification of the TPO activity was accomplished by linearly correlating the TPO concentration with absorbance readings.
as §1
TPO inhibitory activity was calculated as follows: %inhibition=(1−ΔA/mintest/ΔAminblank)×100 Where: ΔA/min test is the linear absorbance change per minute of the test material and ΔA min blank is the linear change in absorbance per minute of the blank.
The IC50 value was determined by the interpolation of dose response curves. […] The mode of inhibition of the enzyme was performed using the Lineweaver–Burk plot.

TPO [5] = tested on: TPO; design: method as in PMID 8924586; details: read-out: IC50 in relation to TPO; cited from earlier work
[6] = after meal containing 150 g fried onions (equivalent to 64 mg quercetin); cited from earlier work
[7] = design: method as in doi:10.1039/C6RA28237G; details: rats, cited from earlier work
[8] = design: method as in PMID 25978046; details: Melissa officinalis extract containing 500 mg rosmarinic acid, fasted state; cited from earlier work
[9] = six weeks supplementation with rutin, volunteers; cited from earlier work
[10] = mixture with Chlorogenic Acid, listed as Rosmarinic acid
[11] = mixture with Quercetin, listed as Rosmarinic acid
[12] = mixture with Chlorogenic Acid, listed as Rutin

Cn1cc[nH]c1=S [Methimazole]
IC50 (TPO [1]): 10.7 µM

CCCc1cc(=O)[nH]c(=S)[nH]1 [Propylthiouracil]
IC50 (TPO [1]): 4 µM

Cc1c(C)c2c(c(C)c1O)CCC(C)(C(=O)O)O2 (centres unmarked) [Trolox, 6-hydroxy-2,5,7,8-tetramethylchroman-2-carboxylic acid, reference compound]
IC50 [2]: 407 ± 14 µM

O=C(/C=C/c1ccc(O)c(O)c1)O[C@@H]1C[C@](O)(C(=O)O)C[C@@H](O)[C@H]1O [chlorogenic acid]
Type of interaction (scale according to Chou) (thyroid peroxidase (TPO) [3]; mixture with Quercetin): antagonism; also recorded: antagonistic interaction | Type of interaction (scale according to Chou) (thyroid peroxidase (TPO) [3]; mixture with Quercetin, listed as Chlorogenic acid): Antagonism | Type of interaction (scale according to Chou) (thyroid peroxidase (TPO) [3]; mixture with Rosmarinic Acid): antagonistic interaction; also recorded: Moderate antagonism | Type of interaction (scale according to Chou) (thyroid peroxidase (TPO) [3]; mixture with Rutin): Slight synergism | Mode of Inhibition (thyroid peroxidase (TPO) [4]): noncompetitive | Vmax (thyroid peroxidase (TPO) [4]): 149.25 ± 5.97 a * ΔAU/min | Ki (thyroid peroxidase (TPO) [4]): 170 ± 5 µM | IC50 (thyroid peroxidase (TPO) [4]): 1440 ± 41 µM

O=c1c(O)c(-c2ccc(O)c(O)c2)oc2cc(O)cc(O)c12 [quercetin]
IC50 (TPO [5]): 2.4 µM | Type of interaction (scale according to Chou) (thyroid peroxidase (TPO) [3]; mixture with Chlorogenic Acid): Antagonism | Type of interaction (scale according to Chou) (thyroid peroxidase (TPO) [3]; mixture with Rosmarinic Acid): Moderate antagonism | IC50 [2]: 450 µM and 447 µM | Mode of Inhibition (thyroid peroxidase (TPO) [4]): uncompetitive | Vmax (thyroid peroxidase (TPO) [4]): 149.25 ± 4.35 a ΔAU/min | human plasma concentration of quercetin [6]: about 0.65 umol/l

O=C(/C=C/c1ccc(O)c(O)c1)O[C@H](Cc1ccc(O)c(O)c1)C(=O)O [rosmarinic acid]
Type of interaction (scale according to Chou) (thyroid peroxidase (TPO) [3]; mixture with Chlorogenic Acid): moderate antagonism | CI (Combination Index) (thyroid peroxidase (TPO) [3]; mixture with Chlorogenic Acid): 1.25 | CI (Combination Index) (thyroid peroxidase (TPO) [3]; [10]): 1.25 ± 0.05 | Type of interaction (scale according to Chou) (thyroid peroxidase (TPO) [3]; [10]): Moderate antagonism | Type of interaction (scale according to Chou) (thyroid peroxidase (TPO) [3]; mixture with Quercetin): moderate antagonism; also recorded: antagonistic interaction | CI (Combination Index) (thyroid peroxidase (TPO) [3]; mixture with Quercetin): 1.45 | CI (Combination Index) (thyroid peroxidase (TPO) [3]; [11]): 1.45 ± 0.03 | Type of interaction (scale according to Chou) (thyroid peroxidase (TPO) [3]; [11]): Moderate antagonism | Type of interaction (scale according to Chou) (thyroid peroxidase (TPO) [3]; mixture with Rutin): nearly additive | CI (Combination Index) (thyroid peroxidase (TPO) [3]; mixture with Rutin): 1.06 ± 0.05 | Type of interaction (scale according to Chou) (thyroid peroxidase (TPO) [3]; mixture with Rutin, listed as Rosmarinic acid): Nearly additive | IC50 [2]: 151 ± 6 µM | Mode of Inhibition (thyroid peroxidase (TPO) [4]): competitive | Vmax (thyroid peroxidase (TPO) [4]): 175.44 ± 7.01 b ΔAU/min | Ki (thyroid peroxidase (TPO) [4]): 1 µM | IC50 (thyroid peroxidase (TPO) [4]): 4 ± 0.14 µM | absolute bioavailability ([7]; oral 25 mg/kg): 1.28% | absolute bioavailability ([7]; oral 50 mg/kg): 0.91% | absolute bioavailability ([7]; oral […]): 1.69% | maximum serum concentration [8]: 162.20 nM | time of peak serum concentration of total rosmarinic acid [8]: 1 h

C[C@@H]1O[C@@H](OC[C@H]2O[C@@H](Oc3c(-c4ccc(O)c(O)c4)oc4cc(O)cc(O)c4c3=O)[C@H](O)[C@@H](O)[C@@H]2O)[C@H](O)[C@H](O)[C@H]1O [rutin]
IC50 (TPO [5]): 40.6 µM | Type of interaction (scale according to Chou) (thyroid peroxidase (TPO) [3]; mixture with Chlorogenic Acid): slight synergism; also recorded: synergistically | CI (Combination Index) (thyroid peroxidase (TPO) [3]; mixture with Chlorogenic Acid): 0.88 | CI (Combination Index) (thyroid peroxidase (TPO) [3]; [12]): 0.88 ± 0.02 | Type of interaction (scale according to Chou) (thyroid peroxidase (TPO) [3]; [12]): Slight synergism | Type of interaction (scale according to Chou) (thyroid peroxidase (TPO) [3]; mixture with Quercetin): additive interaction; also recorded: nearly additive | CI (Combination Index) (thyroid peroxidase (TPO) [3]; mixture with Quercetin): 0.096 and 0.096 ± 0.05 | Type of interaction (scale according to Chou) (thyroid peroxidase (TPO) [3]; mixture with Quercetin, listed as Rutin): additively; also recorded: Nearly additive | Type of interaction (scale according to Chou) (thyroid peroxidase (TPO) [3]; mixture with Rosmarinic Acid): additively; also recorded: additive interaction | Type of interaction (scale according to Chou) (thyroid peroxidase (TPO) [3]; mixture with Rosmarinic Acid, listed as Rutin): Nearly additive | IC50 [2]: 292 ± 10 µM | Mode of Inhibition (thyroid peroxidase (TPO) [4]): competitive | Vmax (thyroid peroxidase (TPO) [4]): 149.25 ± 5.01 a ΔAU/min | Ki (thyroid peroxidase (TPO) [4]): 130 ± 3 µM | increase in plasma isorhamnetin [9]: 10 fold | increase in plasma kaempferol [9]: 3 fold | increase in plasma quercetin [9]: 2.5 fold
